Experimental data taken from US20160115189A1, “PARASITICIDAL COMPOUNDS, METHODS, AND FORMULATIONS” (ELI LILLY AND COMPANY, priority 2013, published 2016).

Test system: adult brown tick (Rhipicephalus sanguineus)
Experiment: Assay 5: adult brown tick infestations on dogs
Assay type: in vivo, Rhipicephalus sanguineus on beagle dogs
Conditions: 10 mg/kg topical spot-on
Procedure: The total number of live parasites present on each dog is determined for each interval, and this number is transformed using the natural logarithm transformation plus one (Ln count+1); addition of one to each count served to adjust for counts that are zero. Geometric mean (GM) group tick and flea counts are obtained via back-transformation of group mean transformed counts and subtracting one. The negative control group is used for comparison to treated groups for the calculation of percent efficacy (% reduction in live parasite counts). GM percent efficacy of treatments is calculated using the following formula: […]
The therapeutic (knockdown) and residual efficacy of the Example 1-4 compounds, when administered via topical spot-on at 10 mg/kg, is evaluated against adult brown tick (Rhipicephalus sanguine us) infestations on dogs. Twenty (20) beagle dogs are allocated to either an untreated, negative control group or one of four treated groups (n=4 dogs per group). Dogs are infested with approximately 50 unfed, adult R. sanguineus ticks on Days −1, 5, 12, 19 and 28. On Day 0, dogs are treated with Example 1-4 compound formulations (each, 50 mg/ml of technical active dissolved in a vehicle solution of propylene carbonate, benzyl alcohol, and isopropyl myristate), applied via topical spot-on in a volume so as to achieve a point dose of 10 mg/kg. Tick counts and classification are conducted on Days 2, 7, 14, 21 and 30. GM percent efficacy of treatments against ticks is calculated using the formula in Assay 3.

Row | SMILES | GM percent efficacy (Day 2, R. sanguineus) | Geometric Mean Group Live Tick Counts (Day 2, R. sanguineus) | GM percent efficacy (Day 7, R. sanguineus) | Geometric Mean Group Live Tick Counts (Day 7, R. sanguineus) | GM percent efficacy (Day 14, R. sanguineus) | Geometric Mean Group Live Tick Counts (Day 14, R. sanguineus) | GM percent efficacy (Day 21, R. sanguineus) | Geometric Mean Group Live Tick Counts (Day 21, R. sanguineus) | GM percent efficacy (Day 30, R. sanguineus) | Geometric Mean Group Live Tick Counts (Day 30, R. sanguineus)
1 | CC[C@H]1CCC[C@H](NC(=O)c2ccncc2)[C@@H](C)C(=O)C2=C[C@@H]3[C@@H](C=C[C@@H]4C[C@@H](O[C@@H]5O[C@@H](C)[C@H](OC)C(OC)[C@H]5OC)C[C@@H]34)[C@@H]2CC(=O)O1 (stereo partly drawn) [Example 3, N-((2R,3aS,5aR,5bS, 9S,13S,14R,16aS, 16bR)-9-ethyl-14-methyl-7,15-dioxo-2-(((2R,3R,5S,6S)-3,4,5-trimethoxy-6-methyltetrahydro-2H-pyran-2-yl)oxy)-2,3,3a,5a,5b,6,7,9,10,11,12,13,14, 15,16a,16b-hexadecahydro-1H-as-indaceno[3,2-d][1]oxacyclododecin-13-yl)isonicolina-mide] | (62.52) | 11.80 | (85.01) | 3.23 | (76.50) | 5.12 | (82.44) | 5.90 | (41.02) | 15.47
2 | CC[C@H]1CCC[C@H](NC(=O)c2ccncn2)[C@@H](C)C(=O)C2=C[C@@H]3[C@@H](C=C[C@@H]4C[C@@H](O[C@@H]5O[C@@H](C)[C@H](OC)C(OC)[C@H]5OC)C[C@@H]34)[C@@H]2CC(=O)O1 (stereo partly drawn) [Example 2, N-((2R,3aS,5aR,5bS,9S,14R,16aS,16bR)-9-ethyl-14-methyl-7,15-dioxo-2-(((2R,3R,5S,6S)-3,4,5-trimethoxy-6-methyltetrahydro-2H-pyran-2-yl)oxy)-2,3,3a,5a,5 b,6,7,9,10,11,12,13,14,15,16a,16b-hexadecahydro-1H-as-indaceno[3,2-d][1]oxacyclododecin-13-yl)pyrimidine-4-carboxamide] | (53.80) | 14.55 | (99.12) | 0.19 | (73.29) | 5.82 | (76.46) | 7.91 | (33.99) | 17.31
3 | CC[C@H]1CCC[C@H](NC(=O)c2cc(C)on2)[C@@H](C)C(=O)C2=C[C@@H]3[C@@H](C=C[C@@H]4C[C@@H](O[C@@H]5O[C@@H](C)[C@H](OC)C(OC)[C@H]5OC)C[C@@H]34)[C@@H]2CC(=O)O1 (stereo partly drawn) [Example 4, N-((2R,3aS,5aR,5bS, 9S,13S,14R,16aS, 16bR)-9-ethyl-14-methyl-7,15-dioxo-2-(((2R,3R,5S,6S)-3,4,5-trimethoxy-6-methyltetrahydro-2H-pyran-2-yl)oxy)-2,3,3a,5a,5b,6,7,9, 10,11,12,13,14,15, 16a,16b-hexadecahydro-1H-as-indaceno[3,2-d][1]oxacyclododecin-13-yl)-5-methyl-isoxazole-3-carboxamide] | (67.71) | 10.17 | (96.60) | 0.73 | (82.25) | 3.86 | (81.13) | 6.34 | (26.88) | 19.17
